Source: patent US8877748B2, “Heterocyclic fused anthraquinone derivatives, manufacturing method and pharmaceutical composition using thereof” (National Defense Medical Center, priority 2012, dated 2014)

Tests used:
[1] = system: MALME-3M; assay: NCI one-dose screening, melanoma MALME-3M; assay type: cell-based, human; settings: 10 μM
[2] = system: M14; assay: NCI one-dose screening, melanoma M14; assay type: cell-based, human; settings: 10 μM
[3] = system: SK-OV-3; assay: NCI one-dose screening, ovarian cancer SK-OV-3; assay type: cell-based, human; settings: 10 μM
[4] = system: SK-MEL-28; assay: NCI one-dose screening, melanoma SK-MEL-28; assay type: cell-based, human; settings: 10 μM
[5] = system: BT-549; assay: NCI one-dose screening, breast cancer BT-549; assay type: cell-based, human; settings: 10 μM
[6] = system: OVCAR-8; assay: NCI one-dose screening, ovarian cancer OVCAR-8; assay type: cell-based, human; settings: 10 μM
[7] = system: RXF, 393; assay: NCI one-dose screening, renal cancer RXF, 393; assay type: cell-based, human; settings: 10 μM
[8] = system: NCI-H226; assay: NCI one-dose screening, non-small cell lung cancer NCI-H226; assay type: cell-based, human; settings: 10 μM
[9] = system: UACC-62; assay: NCI one-dose screening, melanoma UACC-62; assay type: cell-based, human; settings: 10 μM
[10] = system: OVCAR-3; assay: NCI one-dose screening, ovarian cancer OVCAR-3; assay type: cell-based, human; settings: 10 μM
[11] = system: PC-3 prostate cancer cell line; assay: SRB assay cell viability, PC-3 prostate cancer cell line; assay type: cell-based, human; settings: Homo sapiens, PC-3 prostate cancer cell line, Table II prints no unit, μM printed, read-out: SRB assay: 50% inhibition of cancer cell proliferation of sample concentration (IC50) of PC-3 prostate cancer cell line
[12] = system: HOP-62; assay: NCI one-dose screening, non-small cell lung cancer HOP-62; assay type: cell-based, human; settings: 10 μM
[13] = system: MDA-MB-231/ATCC; assay: NCI one-dose screening, breast cancer MDA-MB-231/ATCC; assay type: cell-based, human; settings: 10 μM
[14] = NCI one-dose screening, renal cancer A489; assay type: cell-based, human; settings: 10 μM
[15] = system: KM12; assay: NCI one-dose screening, colon cancer KM12; assay type: cell-based, human; settings: 10 μM
[16] = system: TK-10; assay: NCI one-dose screening, renal cancer TK-10; assay type: cell-based, human; settings: 10 μM
[17] = system: SK-MEL-5; assay: NCI one-dose screening, melanoma SK-MEL-5; assay type: cell-based, human; settings: 10 μM
[18] = system: U251; assay: NCI one-dose screening, CNS cancer U251; assay type: cell-based, human; settings: 10 μM
[19] = system: MDA-MB-468; assay: NCI one-dose screening, breast cancer MDA-MB-468; assay type: cell-based, human; settings: 10 μM
[20] = system: K562cell line; assay: NCI one-dose screening, leukemia K562; assay type: cell-based, human; settings: 10 μM
[21] = system: SNB-75; assay: NCI one-dose screening, CNS cancer SNB-75; assay type: cell-based, human; settings: 10 μM
[22] = system: EKVX; assay: NCI one-dose screening, non-small cell lung cancer EKVX; assay type: cell-based, human; settings: 10 μM
[23] = system: SF-295; assay: NCI one-dose screening, CNS cancer SF-295; assay type: cell-based, human; settings: 10 μM
[24] = system: SNB-19; assay: NCI one-dose screening, CNS cancer SNB-19; assay type: cell-based, human; settings: 10 μM
[25] = system: IGROV1; assay: NCI one-dose screening, ovarian cancer IGROV1; assay type: cell-based, human; settings: 10 μM
[26] = system: OVCAR-5; assay: NCI one-dose screening, ovarian cancer OVCAR-5; assay type: cell-based, human; settings: 10 μM
[27] = system: HS 578-T; assay: NCI one-dose screening, breast cancer HS 578-T; assay type: cell-based, human; settings: 10 μM; Breast cancer
[28] = system: MOLT-4; assay: NCI one-dose screening, leukemia MOLT-4; assay type: cell-based, human; settings: 10 μM
[29] = system: NCI-H522; assay: NCI one-dose screening, non-small cell lung cancer NCI-H522; assay type: cell-based, human; settings: 10 μM
[30] = system: CAKI-1; assay: NCI one-dose screening, renal cancer CAKI-1; assay type: cell-based, human; settings: 10 μM
[31] = system: PRMI-8226 cell line; assay: NCI one-dose screening, leukemia PRMI-8226; assay type: cell-based, human; settings: 10 μM
[32] = system: DU145; assay: NCI one-dose screening, prostate cancer DU145; assay type: cell-based, human; settings: 10 μM
[33] = system: MCF7; assay: NCI one-dose screening, breast cancer MCF7; assay type: cell-based, human; settings: 10 μM
[34] = system: HT29; assay: NCI one-dose screening, colon cancer HT29; assay type: cell-based, human; settings: 10 μM
[35] = system: UO-31; assay: NCI one-dose screening, renal cancer UO-31; assay type: cell-based, human; settings: 10 μM
[36] = system: A549/ATCC; assay: NCI one-dose screening, non-small cell lung cancer A549/ATCC; assay type: cell-based, human; settings: 10 μM
[37] = system: HCT-116; assay: NCI one-dose screening, colon cancer HCT-116; assay type: cell-based, human; settings: 10 μM
[38] = system: SR; assay: NCI one-dose screening, leukemia SR; assay type: cell-based, human; settings: 10 μM
[39] = system: HCT-15; assay: NCI one-dose screening, colon cancer HCT-15; assay type: cell-based, human; settings: 10 μM
[40] = system: ACHN; assay: NCI one-dose screening, renal cancer ACHN; assay type: cell-based, human; settings: 10 μM
[41] = system: NCl/ADR-RES; assay: NCI one-dose screening, breast cancer NCl/ADR-RES; assay type: cell-based, human; settings: 10 μM; listed under Ovarian cancer
[42] = system: NCI-H460; assay: NCI one-dose screening, non-small cell lung cancer NCI-H460; assay type: cell-based, human; settings: 10 μM
[43] = system: COLO 205; assay: NCI one-dose screening, colon cancer COLO 205; assay type: cell-based, human; settings: 10 μM
[44] = system: MDA, -MB-435; assay: NCI one-dose screening, breast cancer MDA, -MB-435; assay type: cell-based, human; settings: 10 μM; listed under Melanoma
[45] = system: SF-539; assay: NCI one-dose screening, CNS cancer SF-539; assay type: cell-based, human; settings: 10 μM
[46] = system: T-47D; assay: NCI one-dose screening, breast cancer T-47D; assay type: cell-based, human; settings: 10 μM
[47] = system: UACC-257; assay: NCI one-dose screening, melanoma UACC-257; assay type: cell-based, human; settings: 10 μM
[48] = system: 786-O; assay: NCI one-dose screening, renal cancer 786-O; assay type: cell-based, human; settings: 10 μM
[49] = system: PC-3; assay: NCI one-dose screening, prostate cancer PC-3; assay type: cell-based, human; settings: 10 μM
[50] = system: HOP-92; assay: NCI one-dose screening, non-small cell lung cancer HOP-92; assay type: cell-based, human; settings: 10 μM
[51] = system: human tumor cell lines; assay: NCI one-dose screening, Mean / Delta / Range of growth percent over all tested cell lines; assay type: cell-based; settings: 10 μM
[52] = system: SK-MEL-2; assay: NCI one-dose screening, melanoma SK-MEL-2; assay type: cell-based, human; settings: 10 μM
[53] = system: SF-268; assay: NCI one-dose screening, CNS cancer SF-268; assay type: cell-based, human; settings: 10 μM
[54] = system: LOX IMVI; assay: NCI one-dose screening, melanoma LOX IMVI; assay type: cell-based, human; settings: 10 μM
[55] = system: SN12C; assay: NCI one-dose screening, renal cancer SN12C; assay type: cell-based, human; settings: 10 μM
[56] = system: HL-60, TB; assay: NCI one-dose screening, leukemia HL-60, TB; assay type: cell-based, human; settings: 10 μM
[57] = system: NCI-H23; assay: NCI one-dose screening, non-small cell lung cancer NCI-H23; assay type: cell-based, human; settings: 10 μM
[58] = system: HCC-2998; assay: NCI one-dose screening, colon cancer HCC-2998; assay type: cell-based, human; settings: 10 μM

O=C1c2ccccc2C(=O)c2c1cc(Sc1ccc(F)cc1F)c1nsnc21 [C39, 4-(2,4-difluorophenylthio)anthra[2,1-c] [1,2,5]thiadiazol-6,11-dione]
Growth Percent MALME-3M [1]: 39.46% | Growth Percent M14 [2]: 53.77% | Growth Percent SK-OV-3 [3]: 92.58% | Growth Percent SK-MEL-28 [4]: 79.45% | Growth Percent BT-549 [5]: 66.40- Percent | Growth Percent OVCAR-8 [6]: 0.32% | Growth Percent RXF 393 [7]: 36.69% | Growth Percent NCI-H226 [8]: 88.85% | Growth Percent UACC-62 [9]: 53.27% | Growth Percent OVCAR-3 [10]: −52.32% | IC50 [11]: 14.8 µM | Growth Percent HOP-62 [12]: 58.46% | Growth Percent MDA-MB-231/ATCC [13]: −9.73% | Growth Percent A498 [14]: 50.80% | Growth Percent KM12 [15]: 51.79% | Growth Percent TK-10 [16]: 111.93% | Growth Percent SK-MEL-5 [17]: 48.53% | Growth Percent U251 [18]: 34.47% | Growth Percent MDA-MB-468 [19]: −86.96% | Growth Percent K562 [20]: −21.06% | Growth Percent SNB-75 [21]: 42.86% | Growth Percent EKVX [22]: 98.12% | Growth Percent SF-295 [23]: 68.77% | Growth Percent SNB-19 [24]: 87.35% | Growth Percent IGROV1 [25]: 975% | Growth Percent OVCAR-5 [26]: 110.21% | Growth Percent HS 578T [27]: 50.08% | Growth Percent MOLT-4 [28]: −41.57% | Growth Percent NCI-H522 [29]: 61.06% | Growth Percent CAKI-1 [30]: 24.02% | Growth Percent RPMI-8226 [31]: 6.29% | Growth Percent DU145 [32]: 41.32% | Growth Percent MCF7 [33]: 6.58% | Growth Percent HT29 [34]: 102.45% | Growth Percent UO-31 [35]: 70.30% | Growth Percent A549/ATCC [36]: 111.54% | Growth Percent HCT-116 [37]: −63.06% | Growth Percent SR [38]: 0.20% | Growth Percent HCT-15 [39]: 45.84% | Growth Percent ACHN [40]: 34.93% | Growth Percent NCI/ADR-RES [41]: −26.24% | Growth Percent NCI-H460 [42]: 83.60% | Growth Percent COLO 205 [43]: 104.04% | Growth Percent MDA-MB-435 [44]: −85.27% | Growth Percent SF-539 [45]: 58.79% | Growth Percent T-47D [46]: −28.61% | Growth Percent UACC-257 [47]: 43.93% | Growth Percent 786-0 [48]: 3.74% | Growth Percent PC-3 [49]: −9.72% | Growth Percent HOP-92 [50]: −18.39% | Growth Percent Delta ([51]; delta over all cell lines): 119.50% | Growth Percent Mean ([51]; mean over all cell lines): 32.54% | Growth Percent Range ([51]; range over all cell lines): 198.89% | Growth Percent SK-MEL-2 [52]: 51.79% | Growth Percent SF-268 [53]: 8.47% | Growth Percent LOX IMVI [54]: −42.03% | Growth Percent SN12C [55]: 9.12% | Growth Percent HL-60(TB) [56]: −37.71% | Growth Percent NCI-H23 [57]: 9.53% | Growth Percent HCC-2998 [58]: 107.02%
